Experimental data from patent US20240002416A1 (Rheinische-Friedrich-Wilhelms-Universität Bonn, priority 2020, published 2024).

Legend:
[1] = target: T1, human MRGPRX4-83L (Homo sapiens, UniProt Q96LA9); assay: β-arrestin assay (CHO β-arrestin ARMS1-ProLink 2 human MRGPRX4 83L); type: cell-based; conditions: for Emax: efficacy based on maximal effect of 100 nM B-16 (set as 100%), read-out: Emax; for EC50: β-arrestin recruitment, CHO cells, MRGPRX4-83L, read-out: EC50 ± SEM
T1 construct: host or cells: CHO β-arrestin cells
T1 sequence (Q96LA9 whole entry): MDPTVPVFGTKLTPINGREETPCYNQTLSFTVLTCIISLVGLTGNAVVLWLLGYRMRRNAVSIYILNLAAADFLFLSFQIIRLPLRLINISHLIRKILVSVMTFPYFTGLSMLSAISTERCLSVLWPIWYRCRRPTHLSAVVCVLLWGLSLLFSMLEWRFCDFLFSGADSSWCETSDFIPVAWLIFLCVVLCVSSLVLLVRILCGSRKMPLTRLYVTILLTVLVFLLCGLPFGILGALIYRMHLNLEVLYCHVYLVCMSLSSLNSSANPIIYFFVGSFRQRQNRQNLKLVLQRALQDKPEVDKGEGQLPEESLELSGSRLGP
Experimental: (§1) For β-arrestin recruitment assays, recombinant Chinese hamster ovary (CHO) cells expressing the human MRGPRX4 were used (DiscoverX/Eurofins) which allowed to measure β-galactosidase complementation upon β-arrestin recruitment. For calcium mobilization assays, recombinant astrocytes expressing MRGPX4-83L, or LN229 glioblastoma cells natively expressing the MRGPRX4-83S, were used.
(§2) The assays were performed as previously described for other rhodopsin-like GPCRs (Müller, C.E.; 8-Benzamidochromen-4-one-2-carboxylic acids: potent and selective agonists for the orphan G protein-coupled receptor GPR35. J. Med. Chem. 2013, 56:5182-97; Müller, C.E. Molecular Recognition of Agonists and Antagonists by the Nucleotide-Activated G Protein-Coupled P2Y2 Receptor. J. Med. Chem. 2017, 60:8425-8440).

[2] = target: T1, human MRGPRX4-83L; assay: Calcium assay (human MRGPRX4 83L), recombinant astrocytes; type: cell-based; conditions: for EC50: calcium mobilization, MRGPRX4-83L, read-out: EC50 ± SEM; for Emax: efficacy based on maximal effect of 1 μM B-16 (set as 100%), read-out: Emax
Experimental: as §1, §2

[3] = target: T2, MRGPRX4-83S (Homo sapiens, UniProt Q96LA9, L83S); assay: Calcium assay (human glioblastoma LN229 cells expressing the MRGPRX4-83S); type: cell-based; parameters: LN229 glioblastoma cells natively expressing the MRGPRX4-83S; endogenous in cells; host or cells: LN229 human glioblastoma cells; conditions: Table 2; for EC50: calcium mobilization, LN229 cells, MRGPRX4-83S, read-out: EC50 ± SEM; for Emax: LN-229, efficacy based on 30 μM H-1 (set as 100%), read-out: Emax
T2 sequence (Q96LA9 whole entry L83S): as the sequence (Q96LA9 whole entry) above, with L83S counted along it
Experimental: as §1, §2

[4] = target: T2, MRGPRX4-83S; assay: β-arrestin assay (CHO β-arrestin human MRGPRX4-83S); type: cell-based; parameters: host or cells: CHO β-arrestin cells; conditions: Table 2; for Emax: efficacy based on 100 nM B-16 (set as 100%), read-out: Emax; for EC50: β-arrestin recruitment, CHO cells, MRGPRX4-83S, read-out: EC50 ± SEM
Experimental: as §1, §2

[5] = Table 1, means of 3-4 experiments

Row | SMILES | melting point [°C] | Emax ([1]; Table 4) [%] | EC50 ([1]; Table 4) [nM] | EC50 ([2]; Table 4) [nM] | Emax ([2]; Table 4) [%] | IC50 ([1]; Table 1, inhibition of the effect of 2.6 μM B-16) [nM] | EC50 [1, 5] [nM] | IC50 [2] [nM] | EC50 ([2]; Table 1) [nM] | EC50 [3] [nM] | Emax [4] [%] | EC50 [4] [nM] | Emax ([1]; Table 1) [%] | Emax ([2]; Table 1) [%] | Emax [3] [%]
1 | C#CCn1c(=O)c2nc(CCc3ccc(Br)cc3)[nH]c2n(CCCCP(=O)(O)O)c1=O [B-26, (4-(8-(4-Bromophenethyl)-2,6-dioxo-1-(prop-2-yn-1-yl)-1,2,6,9-tetrahydro-3H-purin-3-yl)butyl) phosphonic acid] | 206 to 208 | 70 | 2740 ± 580 | 187 ± 39 | 79 | – | – | – | – | – | – | – | – | – | –
2 | C#CCn1c(=O)c2[nH]c(CCc3ccccc3Br)nc2n(CCCCCP(=O)(O)O)c1=O [B-52, (5-(8-(2-Bromophenethyl)-2,6-dioxo-1-(prop-2-yn-1-yl)-1,2,6,7-tetrahydro-3H-purin-3-yl)pentyl)phosphonic acid] | 219 to 221 | 93 | 1890 ± 280 | 604 ± 275 | 61 | – | – | – | – | – | – | – | – | – | –
3 | C#CCn1c(=O)c2c(nc(CCc3ccccc3I)n2C(C)C)n(CCCCP(=O)(O)O)c1=O [B-47, (4-(8-(2-Iodophenethyl)-7-isopropyl-2,6-dioxo-1-(prop-2-yn-1-yl)-1,2,6,7-tetrahydro-3H-purin-3-yl)butyl)phosphonic acid] | 123 to 125 | 97 | 6.85 ± 7.18 | 1.16 ± 0.26 | 118 | – | – | – | – | – | – | – | – | – | –
4 | C#CCn1c(=O)c2[nH]c(CCc3ccccc3I)nc2n(CCCCP(=O)(O)O)c1=O [B-25, (4-(8-(2-Iodophenethyl)-2,6-dioxo-1-(prop-2-yn-1-yl)-1,2,6,7-tetrahydro-3H-purin-3-yl)butyl) phosphonic acid] | 227 to 229 | 96 | 381 ± 112 | 43.1 ± 9.4 | 103 | – | – | – | – | – | – | – | – | – | –
5 | C#CCn1c(=O)c2c(nc(Cc3cccc4ccccc34)n2CC)n(CCCCP(=O)(O)O)c1=O [B-58, (4-(7-Ethyl-8-(naphthalen-1-ylmethyl)-2,6-dioxo-1-(prop-2-yn-1-yl)-1,2,6,7-tetrahydro-3H-purin-3-yl)butyl)phosphonic acid] | 138 to 140 | – | – | – | – | – | – | – | – | – | – | – | – | – | –
6 | CCCn1c(=O)c2[nH]c(C3CCCC3)nc2n(CCCCP(=O)(O)O)c1=O [J-2, (4-(8-Cyclopentyl-2,6-dioxo-1-propyl-1,2,6,7-tetrahydro-3H-purin-3-yl)butyl)phosphonic acid] | – | – | – | – | – | > 10000 | > 10000 | > 50000 | > 50000 | > 10000 | 76 | 6360 ± 1630 | – | – | –
7 | C#CCn1c(=O)c2c(nc(CCc3cccc(OC)c3)n2C)n(CCCCP(=O)(O)O)c1=O [B-15, (4-(8-(3-Methoxyphenethyl)-7-methyl-2,6-dioxo-1-(prop-2-yn-1-yl)-1,2,6,7-tetrahydro-3H-purin-3-yl)butyl)phosphonic acid] | – | – | – | – | – | – | 6280 ± 1380 | – | 333 ± 7 | 19.2 ± 3.5 | 140 | 30 ± 5.8 | 141 | 113 | 132
8 | C#CCn1c(=O)c2c(nc(CCc3ccccc3Br)n2C)n(CCCCP(=O)(O)O)c1=O [B-18, (4-(8-(2-Bromophenethyl)-7-methyl-2,6-dioxo-1-(prop-2-yn-1-yl)-1,2,6,7-tetrahydro-3H-purin-3-yl)butyl)phosphonic acid] | – | – | – | – | – | – | 93.5 ± 5.4 | – | 6.35 ± 1.67 | 0.501 ± 0.076 | 128 | 0.296 ± 0.033 | 132 | 112 | 108
9 | COc1cccc(CCc2nc3c([nH]2)c(=O)n(CC2CCC2)c(=O)n3CCCCP(=O)(O)O)c1 [B-13, (4-(1-(Cyclobutylmethyl)-8-(3-methoxyphenethyl)-2,6-dioxo-1,2,6,7-tetrahydro-3H-purin-3-yl)butyl)phosphonic acid] | – | – | – | – | – | – | 48300 ± 14100 | – | 1600 ± 460 | 59.9 ± 10.7 | 93 | 68.9 ± 17 | 96 | 94 | 91
